{"source": "patent US20230075965A1", "about": "“USES OF BIOMARKERS FOR IMPROVING IMMUNOTHERAPY” (Dana-Farber Cancer Institute, Inc., priority 2020, published 2023)", "key": {"[1]": {"test_system": "HLA-E on HT29 and SW620 cells", "assay": "Flow cytometry of surface HLA-E after IFN-gamma, STAT1 KO vs control KO", "assay_type": "cell-based, human", "conditions": "HT29 and SW620, 5 ng/ml IFN-gamma overnight", "procedure": "(§1) HT29 and SW620 cells were transduced with sgRNAs against STAT1 (or control OR genes) and treated overnight with vs. without 5 ng/ml IFN-gamma prior to staining. […] FIG. 6D CTG cytotoxicity assays (see Methods) for HT29 cells with HLA-E KO compared with control KO (data are represented as CTG cytotoxicity assays for HT29, SW620 cells with sgRNA against STAT1 (left) or HLA-E (right) or control KO (using OR10A2) at E:T 1:1, using 3-4 donors per line, n=7 different co-cultures, each co-culture was conducted in 6 replicates. (STAT1 p=7.24E-6, HLA-E p=2.27E-7, Mann-Whitney two sided test n=42). Data are represented as mean±SD). […] Pools of cells of the PRISM DNA-barcoded cell lines were labeled with a fluorescent conjugated antibody, sorted by flow cytometer into four bins based on its fluorescence levels and then sequenced to quantify the read counts of each barcode (and thus presence of cells from each cell line) in each bin. Surface protein expression scores were calculated per line from the read counts in each bin (see Method). […] Upper right: Normalized read counts of each bin sorted by SPIN. In view of the dynamic range of the antibody staining, the four bins were combined into two; reads from the top 2 bins with highest expression are labeled ‘High’ and reads from the 2 bins with lower staining are labeled ‘Low’. Middle right: calculated protein scores. […]"}, "[2]": {"test_system": "HLA-A/B/C on HT29 and SW620 cells", "assay": "Flow cytometry of surface HLA-A/B/C after IFN-gamma, STAT1 KO vs control KO", "assay_type": "cell-based, human", "conditions": "HT29 and SW620, 5 ng/ml IFN-gamma overnight", "procedure": "as §1"}}, "data": [{"substance": "IFN-gamma: interferon-gamma used to stimulate HLA-E and MHC class I expression on tumor cells", "values": [{"measurement": "HLA-E surface expression upon IFN-gamma stimulation", "setting": "[1]", "value": "upregulated in control KO, but not with STAT1 KO"}, {"measurement": "HLA-A/B/C surface expression upon IFN-gamma stimulation", "setting": "[2]", "value": "further increased with IFN-gamma stimulation in the control KO, but not in STAT1 KO cells"}]}]}
